# Results published in ChEMBL document CHEMBL5465560, “Selectivity Literature for EUbOPEN Chemogenomic Library” (2024).
# Experiments:
# [1] = molecular target: Tyrosine-protein kinase Fyn (Homo sapiens) (UniProt P06241); assay: Selectivity interaction (KinomeScan (DiscoverX)) EUB0000229b FYN; details: at 10 µM
# [2] = molecular target: T1, Serine/threonine-protein kinase D1 (Homo sapiens) (UniProt Q15139); assay: Selectivity interaction (KinomeScan (DiscoverX)) EUB0000229b PRKD1; details: at 10 µM
# T1 sequence (whole entry): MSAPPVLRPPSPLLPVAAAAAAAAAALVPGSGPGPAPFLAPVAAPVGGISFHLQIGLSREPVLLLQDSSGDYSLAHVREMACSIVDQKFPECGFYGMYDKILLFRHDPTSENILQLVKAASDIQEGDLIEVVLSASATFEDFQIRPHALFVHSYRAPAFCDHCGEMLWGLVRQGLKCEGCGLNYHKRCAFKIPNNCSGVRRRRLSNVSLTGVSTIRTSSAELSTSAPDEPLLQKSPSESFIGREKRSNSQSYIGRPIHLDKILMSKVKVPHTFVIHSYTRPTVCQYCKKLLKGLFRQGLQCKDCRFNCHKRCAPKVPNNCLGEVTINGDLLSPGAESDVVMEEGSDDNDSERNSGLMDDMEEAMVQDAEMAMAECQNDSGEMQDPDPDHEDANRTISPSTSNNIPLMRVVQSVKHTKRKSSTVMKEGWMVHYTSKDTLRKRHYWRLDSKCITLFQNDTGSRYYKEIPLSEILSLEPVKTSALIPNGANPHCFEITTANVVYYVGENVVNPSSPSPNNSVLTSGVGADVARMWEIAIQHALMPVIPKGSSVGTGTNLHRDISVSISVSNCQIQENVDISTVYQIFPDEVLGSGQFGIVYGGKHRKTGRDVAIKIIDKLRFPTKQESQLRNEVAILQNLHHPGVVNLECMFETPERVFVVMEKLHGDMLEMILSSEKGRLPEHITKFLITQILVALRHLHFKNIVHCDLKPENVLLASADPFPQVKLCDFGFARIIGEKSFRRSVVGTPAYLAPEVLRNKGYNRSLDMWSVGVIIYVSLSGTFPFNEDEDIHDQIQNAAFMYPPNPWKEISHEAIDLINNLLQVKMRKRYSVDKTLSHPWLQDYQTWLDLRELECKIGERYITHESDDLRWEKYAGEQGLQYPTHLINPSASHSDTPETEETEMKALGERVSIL
# [3] = molecular target: T2, Serine/threonine-protein kinase 17A (Homo sapiens) (UniProt Q9UEE5); assay: Selectivity interaction (KinomeScan (DiscoverX)) EUB0000229b STK17A; details: at 10 µM
# T2 sequence (whole entry): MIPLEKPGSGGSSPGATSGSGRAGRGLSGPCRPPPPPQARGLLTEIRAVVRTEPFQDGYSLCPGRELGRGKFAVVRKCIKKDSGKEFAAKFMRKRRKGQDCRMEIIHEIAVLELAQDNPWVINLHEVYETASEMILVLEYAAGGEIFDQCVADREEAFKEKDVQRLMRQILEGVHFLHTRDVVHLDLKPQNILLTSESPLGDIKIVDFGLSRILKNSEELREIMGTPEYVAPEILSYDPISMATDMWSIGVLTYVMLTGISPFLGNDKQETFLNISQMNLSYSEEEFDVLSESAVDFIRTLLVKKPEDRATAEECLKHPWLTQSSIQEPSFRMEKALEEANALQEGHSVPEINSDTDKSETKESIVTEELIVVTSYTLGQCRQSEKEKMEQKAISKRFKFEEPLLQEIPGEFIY
# [4] = molecular target: T3, Cyclin-dependent kinase 11A (Homo sapiens) (UniProt Q9UQ88); assay: Selectivity interaction (KinomeScan (DiscoverX)) EUB0001049a CDK11A; details: at 1 µM
# T3 sequence (whole entry): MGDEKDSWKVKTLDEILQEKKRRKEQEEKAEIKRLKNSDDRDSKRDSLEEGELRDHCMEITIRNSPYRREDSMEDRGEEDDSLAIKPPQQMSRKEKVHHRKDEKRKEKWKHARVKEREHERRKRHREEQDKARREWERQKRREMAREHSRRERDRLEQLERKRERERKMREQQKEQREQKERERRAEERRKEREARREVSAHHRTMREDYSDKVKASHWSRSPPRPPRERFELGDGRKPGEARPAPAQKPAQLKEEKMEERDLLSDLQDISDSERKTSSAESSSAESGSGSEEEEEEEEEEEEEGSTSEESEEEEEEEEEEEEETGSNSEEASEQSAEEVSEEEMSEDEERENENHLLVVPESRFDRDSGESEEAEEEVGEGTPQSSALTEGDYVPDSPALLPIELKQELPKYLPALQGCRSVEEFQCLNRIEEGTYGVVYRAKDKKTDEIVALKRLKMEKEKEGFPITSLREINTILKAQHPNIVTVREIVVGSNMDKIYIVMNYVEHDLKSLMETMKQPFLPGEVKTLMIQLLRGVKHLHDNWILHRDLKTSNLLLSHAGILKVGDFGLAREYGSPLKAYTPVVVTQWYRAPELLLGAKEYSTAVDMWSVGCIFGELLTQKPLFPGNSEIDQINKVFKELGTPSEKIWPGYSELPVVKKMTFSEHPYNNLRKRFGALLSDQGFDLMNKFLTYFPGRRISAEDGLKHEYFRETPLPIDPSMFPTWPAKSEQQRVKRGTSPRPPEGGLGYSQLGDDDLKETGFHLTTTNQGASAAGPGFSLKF
# [5] = molecular target: Protein kinase C theta type (Homo sapiens, UniProt Q04759); assay: Selectivity interaction (KinomeScan (DiscoverX)) EUB0001049a PRKCQ; details: at 1 µM
# Chain of Protein kinase C theta type (Q04759 whole entry, looked up): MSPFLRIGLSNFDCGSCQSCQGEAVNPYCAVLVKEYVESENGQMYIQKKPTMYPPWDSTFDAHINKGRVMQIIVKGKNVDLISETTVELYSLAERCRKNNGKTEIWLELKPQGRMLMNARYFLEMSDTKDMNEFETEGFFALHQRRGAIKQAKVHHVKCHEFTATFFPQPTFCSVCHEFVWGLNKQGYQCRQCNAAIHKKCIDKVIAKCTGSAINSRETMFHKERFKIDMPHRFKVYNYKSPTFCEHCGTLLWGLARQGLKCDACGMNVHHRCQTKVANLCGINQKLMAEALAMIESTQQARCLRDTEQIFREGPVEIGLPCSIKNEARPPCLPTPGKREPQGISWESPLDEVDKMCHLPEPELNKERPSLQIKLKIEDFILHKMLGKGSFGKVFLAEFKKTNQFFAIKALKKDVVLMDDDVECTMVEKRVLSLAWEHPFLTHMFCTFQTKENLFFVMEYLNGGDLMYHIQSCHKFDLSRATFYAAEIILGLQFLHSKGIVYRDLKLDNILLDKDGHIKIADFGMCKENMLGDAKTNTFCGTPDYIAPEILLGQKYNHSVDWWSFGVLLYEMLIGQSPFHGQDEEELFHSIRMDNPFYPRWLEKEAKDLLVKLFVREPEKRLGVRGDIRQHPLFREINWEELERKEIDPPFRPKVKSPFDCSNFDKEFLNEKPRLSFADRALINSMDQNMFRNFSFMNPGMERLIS
# [6] = molecular target: T4, Dual specificity mitogen-activated protein kinase kinase 3 (Homo sapiens) (UniProt P46734); assay: Selectivity interaction (ActivX KiNativ screen (ex vivo kinase selectivity in human PBMCs)) EUB0001619a MAP2K3; format: cell-based; details: PBMC, at 1 µM
# T4 sequence (whole entry): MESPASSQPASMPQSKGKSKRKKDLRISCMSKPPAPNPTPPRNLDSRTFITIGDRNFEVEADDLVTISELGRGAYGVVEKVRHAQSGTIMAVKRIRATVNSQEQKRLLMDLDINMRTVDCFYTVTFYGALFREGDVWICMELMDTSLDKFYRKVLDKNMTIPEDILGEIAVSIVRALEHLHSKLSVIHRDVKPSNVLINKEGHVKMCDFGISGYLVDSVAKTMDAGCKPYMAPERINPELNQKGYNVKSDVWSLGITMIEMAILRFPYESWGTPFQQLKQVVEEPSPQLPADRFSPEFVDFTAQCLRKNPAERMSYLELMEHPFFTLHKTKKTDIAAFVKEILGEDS
# Chain of Tyrosine-protein kinase Fyn (Homo sapiens) (P06241 2-537 limits assumed): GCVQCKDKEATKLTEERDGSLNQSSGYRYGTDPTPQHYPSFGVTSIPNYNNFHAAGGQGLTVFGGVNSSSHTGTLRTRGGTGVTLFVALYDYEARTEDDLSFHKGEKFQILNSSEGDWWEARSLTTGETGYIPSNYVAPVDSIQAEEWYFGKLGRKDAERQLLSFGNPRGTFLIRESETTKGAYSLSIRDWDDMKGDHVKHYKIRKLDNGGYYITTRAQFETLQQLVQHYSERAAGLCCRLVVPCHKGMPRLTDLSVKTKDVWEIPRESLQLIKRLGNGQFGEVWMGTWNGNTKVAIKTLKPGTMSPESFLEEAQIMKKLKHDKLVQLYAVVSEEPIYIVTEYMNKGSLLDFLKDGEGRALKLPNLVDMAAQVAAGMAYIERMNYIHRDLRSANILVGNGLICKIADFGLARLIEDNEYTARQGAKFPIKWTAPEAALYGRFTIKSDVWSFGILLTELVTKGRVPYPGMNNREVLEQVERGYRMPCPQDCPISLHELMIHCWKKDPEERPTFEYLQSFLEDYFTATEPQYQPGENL
smiles,measurement,setting,value
COc1cc(N(C)c2ccnc3ccc(C(F)(F)F)cc23)cc(OC)c1OC,% binding,[1],100%
same,% binding,[2],100%
same,% binding,[3],92%
COc1cc(Nc2nc(C)cc(-c3cnn4nc(OC)ccc34)n2)cc(C(F)(F)F)c1,% of control,[4],83%
same,% of control,[5],94%
N#Cc1cccc(-c2c[nH]c3ncnc(N4CCOCC4)c23)c1,% of inhibition,[6],-5%
